Test system: NOMO1
Assay: cell viability relative to DMSO control; higher = less cytotoxic
Conditions: 48 h
Procedure, shortened: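 Before seeding, each leukemia line was adapted for at least four passages in each medium. NOMO1 or SEM cells (500 cells/well) and P12-Ichikawa cells (1000 cells/well) went into 1536-well plates at 5 μl, then received library compounds in DMSO by pin dosing across 11 threefold concentrations, 47 μM to 0.79 nM. Readout was CellTiter-Glo One luminescence after 48 h at 37°C, and viability is given as a per-plate percentage of DMSO wells, with cell-free wells as background.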

[1] = RPMI 5 mM glucose + 10% FBS, 0.000781 µM
[2] = RPMI 5 mM glucose + 10% FBS, 0.00234 µM
[3] = RPMI 5 mM glucose + 10% FBS, 0.00702 µM
[4] = RPMI 5 mM glucose + 10% FBS, 0.0211 µM
[5] = RPMI 5 mM glucose + 10% FBS, 0.0632 µM
[6] = RPMI 5 mM glucose + 10% FBS, 0.19 µM
[7] = RPMI 5 mM glucose + 10% FBS, 0.569 µM
[8] = RPMI 5 mM glucose + 10% FBS, 1.71 µM
[9] = RPMI 5 mM glucose + 10% FBS, 5.12 µM
[10] = RPMI 5 mM glucose + 10% FBS, 15.4 µM
[11] = RPMI 5 mM glucose + 10% FBS, 46.1 µM
[12] = HPLM + 10% dialyzed FBS, 0.000781 µM
[13] = HPLM + 10% dialyzed FBS, 0.00234 µM
[14] = HPLM + 10% dialyzed FBS, 0.00702 µM
[15] = HPLM + 10% dialyzed FBS, 0.0211 µM
[16] = HPLM + 10% dialyzed FBS, 0.0632 µM
[17] = HPLM + 10% dialyzed FBS, 0.19 µM
[18] = HPLM + 10% dialyzed FBS, 0.569 µM
[19] = HPLM + 10% dialyzed FBS, 1.71 µM
[20] = HPLM + 10% dialyzed FBS, 5.12 µM
[21] = HPLM + 10% dialyzed FBS, 15.4 µM
[22] = HPLM + 10% dialyzed FBS, 46.1 µM
[23] = RPMI 5 mM glucose + 10% dialyzed FBS, 0.000781 µM
[24] = RPMI 5 mM glucose + 10% dialyzed FBS, 0.00234 µM
[25] = RPMI 5 mM glucose + 10% dialyzed FBS, 0.00702 µM
[26] = RPMI 5 mM glucose + 10% dialyzed FBS, 0.0211 µM
[27] = RPMI 5 mM glucose + 10% dialyzed FBS, 0.0632 µM
[28] = RPMI 5 mM glucose + 10% dialyzed FBS, 0.19 µM
[29] = RPMI 5 mM glucose + 10% dialyzed FBS, 0.569 µM
[30] = RPMI 5 mM glucose + 10% dialyzed FBS, 1.71 µM
[31] = RPMI 5 mM glucose + 10% dialyzed FBS, 5.12 µM
[32] = RPMI 5 mM glucose + 10% dialyzed FBS, 15.4 µM
[33] = RPMI 5 mM glucose + 10% dialyzed FBS, 46.1 µM

Structure (SMILES)	cell viability [1] [%]	cell viability [2] [%]	cell viability [3] [%]	cell viability [4] [%]	cell viability [5] [%]	cell viability [6] [%]	cell viability [7] [%]	cell viability [8] [%]	cell viability [9] [%]	cell viability [10] [%]	cell viability [11] [%]	cell viability [12] [%]	cell viability [13] [%]	cell viability [14] [%]	cell viability [15] [%]	cell viability [16] [%]	cell viability [17] [%]	cell viability [18] [%]	cell viability [19] [%]	cell viability [20] [%]	cell viability [21] [%]	cell viability [22] [%]	cell viability [23] [%]	cell viability [24] [%]	cell viability [25] [%]	cell viability [26] [%]	cell viability [27] [%]	cell viability [28] [%]	cell viability [29] [%]	cell viability [30] [%]	cell viability [31] [%]	cell viability [32] [%]	cell viability [33] [%]
NCC/1=C/NC(=S)N1[C@H]2CCC3=C(F)C=C(F)C=C3C2	106	108	105	102	112	103	124	106	101	105	79.4																						
N[S+](=O)([O-])c1cc2c(cc1Cl)NCN[S+]2(=O)[O-]	108	109	114	109	101	113	119	117	117	112	98.8	111	97.3	105	109	122	111	122	121	103	105	102	109	101	112	106	122	136	117	124	111	112	101
CCC1=C2CN3C(=O)\C4=C(/C=C3/C2=NC5=CC=C(O)C=C15)[C@@](O)(CC)C(=O)OC4	93	95.5	92.5	91.8	18	16.6	20.7	17.4	19.6	16.6	16.1	102	96	97.8	60.5	27.1	25.9	28.2	23.4	22.8	24.8	27	104	90.1	91.8	69.8	23.6	22.5	26.6	21	22.7	22.2	21.2
CNCCN(C)Cc1c[nH]nc1-c1ccc(O[C@H]2C[C@H](OCCC3CCOCC3)C2)cc1	126	123	122	132	149	141	135	131	141	148	132	115	110	129	150	136	156	133	128	114	103	121	119	122	140	143	151	130	147	147	144	141	124
C=C1C(=O)O[C@@H]2[C@H]3O[C@]3(C)CC/C=C(\C)CC[C@@H]12	115	121	116	113	112	108	106	102	46.4	5.46	3.54	110	117	110	115	117	142	114	93.8	15.9	14.9	3.29	98.1	103	104	113	114	124	112	99.1	62.3	6.1	3.17
C[C@]12CCC(=O)C(O)=C1CC[C@@H]1[C@@H]2CC[C@]2(C)C(=O)CC[C@@H]12	123	114	105	123	129	110	128	104	107	98.9	95																						
Cc1nc(C(=O)NCC(=O)O)c(O)c2ccc(Oc3ccccc3)cc12	99.4	105	95.7	87.2	94.5	104	86.6	94.9	84.5	102	92.5	106	113	113	119	113	116	104	101	118	97.4	107	84.4	85.3	108	105	116	98.2	96.2	94.9	82.2	104	99.4
NC/1=N/C(=O)C2=C([NH]C=C2CCC3=CC=C(C=C3)C(=O)N[C@@H](CCC(O)=O)C(O)=O)N1	88	92.2	103	94.2	96.2	94.4	93.9	112	92.5	78.9	75.5	107	99.2	110	104	107	116	78.2	46.2	41.8	38.8	29.7	104	91.4	96	105	103	104	103	86	40.5	40.1	38.3
CN1CCN(c2cc(C(=O)Nc3ccc4c(c3)-c3c(c(C(N)=O)nn3-c3ccc(F)cc3)CC4)c(Cl)cn2)CC1	108	102	111	109	109	107	112	106	109	97.4	2.41	123	106	108	113	114	127	113	103	99.4	85.9	1.35	116	108	121	102	117	107	93.4	100	99.9	102	2.16
CN1\C(=C(O)/C2=C(C=C(Cl)S2)[S+]1([O-])=O)C(=O)NC3=NC=CC=C3	109	108	110	105	119	128	126	109	108	121	111	138	112	116	125	119	111	132	103	125	123	108	115	101	126	120	131	126	123	118	112	116	114
Cc1cccc(Nc2nc(N[C@@H]3CCCC[C@@H]3N)ncc2C(N)=O)c1	96.1	106	114	117	129	109	113	99.1	58.7	56	51.5	119	109	119	115	115	126	110	80.9	77.4	85.5	83	101	99.2	109	107	119	115	108	82.4	55.5	58.6	56.8
Cc1n[nH]c2ccc(-c3cncc(OC[C@@H](N)Cc4c[nH]c5ccccc45)c3)cc12	108	114	116	118	117	77.4	92.6	33.2	8.24	1.64	1.13												104	112	93.1	94.6	93.1	63.5	63.6	29.6	5.35	1.27	0.733
COc1cc([C@@H]2c3cc4c(cc3[C@@H](O)C3COC(=O)C32)OCO4)cc(OC)c1O (stereo partly drawn)	81.3	95.6	85.7	17.6	92	82.7	20.5	22.1	19.7	20.3	19.6	88.8	100	101	37	94.3	53.1	37.9	45.9	30.5	30.3	28.2	88.1	95.3	91.5	32.1	90.8	73.3	25.7	26.2	22.9	23	22.3
Cc1n[nH]c(C)c1Cc1sc2c(c1C(=O)N1C[C@H](O)CO1)c(=O)n(C)c(=O)n2CC(C)C	107	105	102	100	102	102	109	99.1	93.9	106	109												105	109	117	102	116	104	115	122	113	119	99.7
CCCCc1ccc(N[S+](=O)([O-])c2ccc(C)c(C(=O)N3CCN(c4cccc(C)c4C)CC3)c2)cc1																							125	128	120	126	126	130	130	119	131	126	108
COC1=CC2=C(C=C1CC3=C(F)C(=CC=C3)Cl)C(=O)\C(=C/N2[C@H](CO)C(C)C)C(O)=O	115	117	109	104	115	129	108	102	110	102	14.7	122	142	123	128	114	131	124	118	127	89.6	27.7	110	118	138	130	131	129	123	118	123	115	24.7
O=C1CCc2cc(OCCCCc3nnnn3C3CCCCC3)ccc2N1	93	94.7	91.3	82.8	85.8	98.4	88.2	88.7	92.4	91.2	91.4	92.2	86.5	92.8	99.6	97.6	98.9	107	86	108	124	111	88.6	93	88.8	95.7	88	93.1	96.9	96.5	109	93.9	96
